Data reported in EP3263567A1, “CARBOXAMIDE-SUBSTITUTED PYRAZOLES AND TRI(HETERO)ARYL-PYRAZOLES FOR USE IN METHODS OF TREATING AND / OR PREVENTING CARDIOVASCULAR DISEASES AND / OR COMORBIDITIES THEREOF” (AiCuris Anti-infective Cures GmbH, priority 2016, dated 2018).

Legend:
[1] = biological target: T1, HCN4 (Homo sapiens, UniProt Q9Y3Q4); assay: Whole-cell patch-clamp, HCN4 currents in stably transfected CHO cells; format: cell-based; parameters: expressed in transfected cells; host or cells: CHO (ATCC CCL-61), stably transfected; selection with Hygromycin and Geneticin
T1 sequence (Q9Y3Q4 1-1203): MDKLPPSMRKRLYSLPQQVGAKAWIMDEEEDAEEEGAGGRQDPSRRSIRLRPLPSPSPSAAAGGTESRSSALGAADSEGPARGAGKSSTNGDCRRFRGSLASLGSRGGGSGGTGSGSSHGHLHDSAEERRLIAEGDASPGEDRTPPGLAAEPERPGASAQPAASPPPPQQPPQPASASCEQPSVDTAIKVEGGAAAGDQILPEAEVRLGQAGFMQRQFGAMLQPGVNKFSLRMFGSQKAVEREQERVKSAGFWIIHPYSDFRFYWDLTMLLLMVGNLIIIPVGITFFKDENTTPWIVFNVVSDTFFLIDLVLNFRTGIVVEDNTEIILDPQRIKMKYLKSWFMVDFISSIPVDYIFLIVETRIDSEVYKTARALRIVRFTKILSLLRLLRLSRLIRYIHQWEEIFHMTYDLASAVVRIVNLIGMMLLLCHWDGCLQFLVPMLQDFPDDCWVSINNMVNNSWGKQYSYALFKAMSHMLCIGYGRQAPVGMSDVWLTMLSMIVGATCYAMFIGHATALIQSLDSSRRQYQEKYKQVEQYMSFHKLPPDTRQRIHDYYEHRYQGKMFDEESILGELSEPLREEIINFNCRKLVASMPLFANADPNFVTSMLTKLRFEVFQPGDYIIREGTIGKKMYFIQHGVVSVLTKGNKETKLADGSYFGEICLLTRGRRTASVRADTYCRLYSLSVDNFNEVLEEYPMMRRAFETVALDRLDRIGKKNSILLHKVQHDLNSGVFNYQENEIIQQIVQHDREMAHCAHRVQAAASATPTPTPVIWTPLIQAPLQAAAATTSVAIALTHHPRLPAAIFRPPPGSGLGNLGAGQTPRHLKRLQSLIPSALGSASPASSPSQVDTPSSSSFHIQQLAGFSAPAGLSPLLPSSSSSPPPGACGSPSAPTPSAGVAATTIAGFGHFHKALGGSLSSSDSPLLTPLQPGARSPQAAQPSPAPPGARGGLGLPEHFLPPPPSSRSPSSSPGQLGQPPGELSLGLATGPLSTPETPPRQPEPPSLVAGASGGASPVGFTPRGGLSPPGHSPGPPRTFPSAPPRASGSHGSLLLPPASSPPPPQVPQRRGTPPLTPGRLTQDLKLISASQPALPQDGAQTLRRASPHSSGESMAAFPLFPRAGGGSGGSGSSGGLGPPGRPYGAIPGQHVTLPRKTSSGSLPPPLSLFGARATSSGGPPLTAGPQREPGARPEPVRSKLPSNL
Protocol: [drawing 92] i.e. 4-[5-[3-Chloro-5-(trifluoromethoxy) phenyl]-1-(pyridin-3-yl)-1H-pyrazol-3-yl]-5,6-dihydro-7H-pyrrolo[3,4-d]pyrimidin-7-one, was tested for its effects on human Nav1.5, Cav1.2, Kv1.5, and HCN4 currents recorded from stably transfected CHO cells. The effect of four concentrations of this compound on these currents was investigated.
The whole-cell patch-clamp technique was used to investigate the effect of Compound A on the currents of Nav1.5, Kv1.5, Cav1.2 and HCN4 channels, expressed in CHO cells (ATCC, CCL-61). Compound A was tested at concentrations of 200 nM, 600 nM, 2000 nM and 6000 nM. For all ion channels 0.1% DMSO was used as vehicle and ZD7288 as suitable blockers were applied to assure accuracy of the method. The selection antibiotics can be dervied from the Table below:
Concentrations of 200 nM, 600 nM, 2000 nM and 6000 nM of Compound A were tested. […]
The 35 mm culture dishes upon which cells were seeded at a density allowing single cells to be recorded were placed on the dish holder of the microscope and continuously perfused (at approximately 1 mL/min) with the bath solution described in section 4.7. […]
As soon as a stable seal could be established outward tail currents were measured upon pulses described in the Table below: […]
Values in Ampere (A) of the peak amplitudes of outward tail currents were generated for each voltage step. […] The recorded current amplitudes at the steady state level of current inhibition were compared to those from control conditions measured in the pre-treatment phase of the same cell. The amount of current block was calculated as percentage of control. To determine whether the observed current inhibition was due to Compound A-interaction with the respective ion channel or due to current rundown, these residual currents were compared to those measured in vehicle treated cells. Data from at least two individual experiments were collected and the corresponding mean values and standard deviations were calculated. […]

[2] = Stability of compound A in solution; format: physicochemical
Protocol: The compound stock solutions were stored at 19°C to 30°C (room temperature). Test solutions were prepared freshly every day. Test solutions were prepared shortly before experimentation.
The Compound A stock solutions were prepared freshly every day of experimentation. Application of Compound A to the CHO cells was completed within one day. During this period, there was no observation indicating any instability of Compound A solved in vehicle. The effects observed on Nav1.5, Kv1.5, Cav1.2 and HCN4 channels of the Compound A dose formulations analyzed remained stable over several hours at room temperature.

Structure (SMILES): O=C1NCc2c1ncnc2-c1cc(-c2cc(Cl)cc(OC(F)(F)F)c2)n(-c2cccnc2)n1 [Compound A, 4-[5-[3-Chloro-5-(trifluoromethoxy)phenyl]-1-(pyridin-3-yl)-1H-pyrazol-3-yl]-5,6-dihydro-7H-pyrrolo[3,4-d]pyrimidin-7-one]
- reduction of the current amplitude (HCN4) ([1]; at ≤ 6 µM): more than 30%
- Hill coefficient (HCN4) ([1]; stably transfected CHO cells): 1.15
- IC50 ([1]; stably transfected CHO cells, 200, 600, 2000, 6000 nM tested): 879 nM
- stability in aqueous and physiological fluids and organic solvents [2]: stable
- stability of dose formulations in bath solution ([2]; several hours at room temperature): no observations indicating any instability
